For this assay, the system named is U2-OS cells. In words: Western blot of apoptosis and DNA damage markers (cleaved caspase-3, PARP1 cleavage, p53, γH2AX) in U2-OS cells. As to conditions: for cleaved caspase-3, etoposide co-treatment: 10 µM plus etoposide 50 µM; for cleaved caspase-3, etoposide co-treatment / cleaved caspase-3, compound alone: 24 hours; for cleavage of PARP1, as apoptotic marker / cleaved caspase-3, compound alone: 10 µM; for cleavage of PARP1, as apoptotic marker: 8 hours after 10 Gy irradiation. It counts as cell-based. The procedure: Fig.4: MW01 and MW05 reduce cell viability and increase p53-mediated apoptosis upon etoposide co-treatment. (A) Representative light microscopy images of U2-OS cells following treatment with DMSO, MW01 (10 µM), MW05 (10 µM), or etoposide (50 µM), or co-treatment with MW01 (10 µM) and etoposide (50 µM), or MW05 (10 µM) and etoposide (50 µM) at 24 (left) and 48 hours (right). (B) Quantification of cell viability using CellTiter-Fluor Cell Viability Assay at 6, 24, and 48 hours. Treatment with 0.1% SDS 30 minutes prior to assay was used as positive cell death control. (ns: not significant; *, **, ***: p<0.05, p<0.01, p<0.001). (C) U2-OS cells were treated with DMSO, MW01 (10 µM), MW 05 (10 µM), or etoposide (50 µM), or co-treated with MW01 (10 µM) and etoposide (50 µM), or MW05 (10 µM) and etoposide (50 µM), as indicated. After 24 hours, whole cell lysates were prepared and analyzed by Western blotting for p65 phosphorylation (S536), caspase-3 and cleaved caspase-3 (left panel) and for p53 and γH2AX) (right panel). Vinculin was used as loading control.
Fig.7: (A) Immunoprecipitation of IKKγ from HEK293 lysates pre-treated for 1 hour with DMSO, MW01 or MW05, then irradiated (IR, 20 Gy) and lysed. (B) Western blot analysis of MEF cells pre-treated with DMSO, MW01, MW05 or ATM inhibitor KU55933 and irradiated (IR, 20 Gy). Lysates were subjected to SDS-PAGE/WB. The specific IKKγ S85 band (lower band) was identified by induction following irradiation and by sensitivity to ATMi and λ- phosphatase (λ-PP) treatment. (C) Western blot analysis of U2os cells pre-treated for 1 hour with the indicated substances, irradiated (IR, 20 Gy) and whole cell lysates probed for poly(ADP)-ribose. (D) Western blot analysis of cytoplasmic and nuclear fractions from U2-OS cells for p-ATM (S 1981), after 1 hour pre-treatment with DMSO, MW01 (10 µM), or MW05 (10 µM) and 45 min following irradiation (IR, 20 Gy). PARP1 and LDHA are used as loading controls for nuclear and cytoplasmic fractions respectively. (E) mRNA expression analysis of CLK4 (top), 48 hours after transfection with siNC or siCLK4. mRNA expression analysis of NFKBIA (bottom), 48 hours after transfection with siNC or siCLK4. Values normalized to unstimulated siNC expressing cells. Statistical comparison was made between experimental conditions and paired siNC control. ns: not significant; **, ***, ****: p<0.01, p<0.001, p<0.0001. (F) Western blot analysis of p65 phosphorylation (S536) and CLK4 expression after transfection with siNC or siCLK4 in unstimulated, after 90 min irradiation (IR, 20 Gy), or after 20 min TNFα (10 ng/mL) conditions in U2-OS cells. Vinculin is used as loading control. Note that CLK4 and p-p65 were blotted on separate membranes, with respective vinculin blots underneath. (G) MW01 and MW05 are inhibitors of DNA damage-induced p65 nuclear translocation. U2-OS cells were pre-treated with DMSO, MW01 or MW05. Etoposide was added and after 2 hours cells were fixed and nuclei stained with DAPI. P65 and γH2AX were stained by immunofluorescence and images taken at a confocal Zeiss 710 LSM microscope with a 40x oil objective. (H) Western blot analysis of U2-OS cells 8 hours after 10 Gy irradiation following 1 hour pre-treatment with 10 µM DMSO, MW01, or MW05. Tubulin was used loading control. (I) mRNA expression analysis of BIRC3 in U2-OS cells 8 hours after 10 Gy irradiation following 1 hour pre-treatment with 10 µM DMSO, MW01, or MW05 and. Values were normalized to DMSO-treated unstimulated cells.
Cells were collected by scraping and lysed in Baeuerle lysis buffer supplemented with Protease (Thermo Fisher Scientific, 78429) and Phosphatase (Thermo Fisher Scientific, 78420) inhibitors after the appropriate treatment and time point. […]

As for `COc1ccc2c(c1OC)c(=O)n1c3ccc(O)cc3c3ccnc2c31` [MW01, 5-Hydroxy-10,11-dimethoxy-9H-benzo[c]indolo[3,2,1-ij][1,5]naphthyridin-9-one], the “cleaved caspase-3, etoposide co-treatment” value is reported as “increased”; the “cleavage of PARP1, as apoptotic marker” value was “potentiated”; the “cleaved caspase-3, compound alone” value was “did not observe an increase”.
The like results for `COc1ccc2cc3c(N)nn(C(=O)c4cccc(N(C)C)c4)c3nc2c1` [MW05, (3-Amino-7-methoxypyrazolo[3,4-b]quinolin-1-yl)-[3-(dimethylamino)phenyl]methanone] were, in that order, “increased”, “potentiated” and “did not observe an increase”.

For the origin of these results see EP4467141A1, “PYRAZOLO-QUINOLINES AS SELECTIVE INHIBITORS OF GENOTOXIC STRESS-INDUCED IKK/NF- KB PATHWAYS FOR CANCER THERAPY” (Max-Delbrück-Centrum für Molekulare Medizin in der …, priority 2023, dated 2024).
